Laboratory results as given in patent US20250296961A1, “ANTIMICROBIAL PEPTIDES FOR REMINERALIZATION OF TEETH AND PREVENTION OF DENTAL CARIES” (The University of Hong Kong, priority 2021, published 2025).
Like-named read-outs stand apart in the source and are kept apart here. Non-standard residues stand in square brackets, D forms with d. No end group written: not given here. *: point of attachment. 3,4‑dihydroxyphenethylamine = Oc1ccc(CCN*)cc1O; pS = N[C@@H](COP(=O)(O)O)C(=O)O

Experiments:
S. mutans biofilms = format: cell-based; settings: for S. mutans killed (biofilm) / Viability counts of S. mutans biofilms: 24 h exposure
Description: (§1) Streptococcus mutans (ATCC 35668, ATCC, Manassas, USA) were cultured in Horse Blood Medium under anaerobic (85% N2, 10% H2, and 5% CO2) conditions at 37° C. Cells were harvested by centrifugation (5000 rpm, 10 min), washed once with 10 mM sodium phosphate-buffered saline (PBS, pH 7.2), and resuspended in brain-heart infusion broth (BHI, Difco Laboratories, Detroit, USA) at a concentration of 10^6 CFU/mL.
S. mutans biofilms were cultured on enamel working surfaces in a 96-well plate. Tooth slices (N=32) were autoclave-sterilized prior to anti-biofilm activity testing. 200 μL S. mutans in BHI (10^6 CFU/mL) was added to each well. After a 24-h incubation at 37° C., each tooth slice was washed once with PBS. […] (in 10 mM HEPES). After incubation, tooth slices were washed once with PBS. One tooth slice at random in each group was stained with the LIVE/DEAD BacLight Bacterial Viability Kit (L7012, Thermo Fisher Scientific, Waltham, USA) and incubated in the dark for 30 min. Fluorescence images were obtained using confocal laser scanning microscopy (CLSM, Fluoview 1000, Olympus, USA). A separate tooth slice was used for the counting of colony-forming units (CFU). Tooth slices were placed in 1 mL BHI solution, and adherent biofilms were removed from the enamel surfaces by sonication for 30 sec. Ten-fold serial dilutions of the suspensions were plated in duplicate on horse blood agar. CFU's were counted after 48-h incubation. Three independent biofilm experiments were performed.

[1] = Demineralization assay of peptide-coated enamel (Example 1); parameters: species or system human; settings: for Maximum lesion depth: 8 μmol/mL coating, MicroCT
Description: (§2) 3×3×1.5 mm^3 (number: 197) tooth slices were prepared using a water-cooled diamond saw (IsoMet low-speed saw, Buehler, Lake Bluff, IL, USA). One working surface of complete enamel tissue from each tooth slice was generated using the MicroCT Skyscan 1172 (Bruker MicroCT, Kontich, Belgium). The enamel working side of the tooth slice was polished and other sides marked with acid-proof nail polish. All tooth slices were cleaned and stored in deionized water at 4° C.
Tooth slices (N=30) were immersed in 8 μmol/mL P-113, P-113-DPS, P-113-DA, P-113-SK, Sp-H5 (n=5 for each) solutions (in 10 mM HEPES) or HEPES (control) overnight. Tooth slices were incubated in 2 mL demineralization solution (2.2 mM CaCl2), 2.2 mM NaH2PO4, 0.05 M acetic acid, pH 4.5) for 7 days at 37° C. Lesions depths were analyzed by MicroCT Skyscan 1172. Mineral calcium (Ca) or phosphorus (P) concentrations before and after immersion were measured using Inductively Coupled Plasma Optical Emission Spectrometer (ICP-OES; Spectro Arcos, Kleve, Germany). Ca/P loss was expressed as mM/cm^2. The mean values of Ca/P loss were analyzed for each group using ANOVA at the 1% c significance level.

[2] = Remineralization assay of peptide-coated enamel (Example 1); parameters: species or system human; settings: 8 μmol/mL coating, remineralization solution 24 h, FE-SEM
Description: as §2
The enamel working surface of tooth slices (N=30) was acid-etched in 37% phosphoric acid for 1 min and rinsed with deionized water for 1 min. The slices were immersed in 8 μmol/mL P-113, P-113-DPS, P-113-DA, P-113-SK, Sp-H5 (n=5 for each) solutions (in 10 mM HEPES) or HEPES (control) overnight. All tooth slices were incubated in 7 mL remineralization solution (2.58 mM CaCl2)·2H2O, 1.55 mM KH2PO4, 10 mg/L NaF, 180 mM NaCl, 50 mM Tris-HCl, pH 7.6) for 24 h. The enamel surface and cross-section morphology were analyzed by FE-SEM (Hitachi, S4800). Ca/P concentrations in the solutions before and after immersion were calculated by ICP-OES. The mean values for Ca/P gain were analyzed using ANOVA at the 1‰ significance level.

S. mutans [3] = test: Anti-planktonic bacterial ability, MIC and MBC (Example 1); format: cell-based, Streptococcus mutans (ATCC 35668); settings: for MIC: 24 h
Description: as §1
Two-fold serial dilutions (in 10 mM HEPES) of P-113, P-113-DPS, P-113-DA, P-113-SK, and Sp-H5 prepared in 25% BHI medium were pipetted into a 96-well cell culture plate at final concentrations from 0.125-128 μmol/mL [100 μL/well]. Each well was seeded with 10 μL bacterial suspension at a final concentration of 10^6 CFU/mL. Sp-H5 with bacterial cells and 25% BHI medium with and without bacterial cells in 10 mM HEPES buffer (pH 7) were used as the positive, negative, and blank control group, respectively. After a 24-h incubation, absorbance was measured at 595 nm using a microplate reader to assess cell growth. […] The minimal bactericidal concentration (MBC) was defined as the lowest concentration of peptide resulting in no colony formation on agar plates after incubation. 10 μL of cell suspension from each well were plated on horse blood agar plates and incubated at 37° C. for 48 h. All determinations were conducted in triplicate experiments.

[4] = Adsorption capacity assay: peptides with HA particles (Micro BCA); format: binding; settings: for Concentration change (95% CI): initial vs final concentration with HA particles; for Final concentration (Mean ± SD): peptide solution mixed with HA particles (20 mg/tube), overnight 37° C.
Description: The adsorption of P-113, P-113-DPS, P-113-DA, and P-113-SK to HA particles (Sigma Chemical Co., St Louis, USA) was measured using the Micro BCA method with Sp-H5 as the control group. Solutions of P-113, P-113-DPS, P-113-DA, P-113-SK and Sp-H5 in 10 mM HEPES buffer (pH 7) were diluted to 10 nmol/mL concentrations, and 200 μL was placed into each tube (P-113, N=10; P-113-DPS, N=10; P-113-DA, N=10; P-113-SK, N=10; and Sp-H5, N=10). Peptide solutions were mixed with (n=5) or without (n=5) HA particles (20 mg/tube) in each group. Tubes were placed onto a rotator overnight at 37° C. for complete reaction. Tubes containing the peptide solution and HA were centrifuged (13000 rpm, 1 min) and the supernatant collected. Bovine serum albumin (BSA) standard solutions (working range=5-250 μg/mL) and working reagent were prepared using the Pierce BCA Protein Assay Kit (Rockford, IL, USA). Working reagents (100 μL/well) were added to a 96-well plate, followed by standard and peptide solutions (100 μL/well). The Plate was incubated in the dark for 30 min and the absorbance (562 nm) measured using a plate reader. The concentration (C) of the BSA standard solution was linear with the absorbance (A) at 562 nm. The function of C=a*A+b was determined (a and b as constants). The final concentration (the peptide solution mixed with HA) and the initial concentration (the peptide solution without HA) were computed using the function and the generated absorbance data of the peptide solution mixed with and without HA.

S. sanguinis = test: Anti-planktonic bacterial ability, MBC (Example 2); format: cell-based, S. sanguinis (ATCC 10556)
Description: (§3) S. mutans (ATCC 35668, ATCC, Manassas, USA), S. gordonii (ATCC 35105, ATCC, Manassas, USA), and S. sanguinis (ATCC 10556, ATCC, Manassas, USA) strains were cultured in brain-heart infusion broth (BHI, Difco Laboratories, Detroit, USA) at 37° C. under anaerobic conditions (85% N2, 10% H2, and 5% CO2). Bacteria were harvested by centrifugation (5000 rpm, 10 min), washed once with sodium phosphate-buffered saline (PBS, 10 mM, pH=7.2), and resuspended in BHI at a concentration of 1×10^6 CFU mL^−1.
(§4) Each well was seeded with 10 μL S. mutans suspension, S. gordonii suspension, and S. sanguinis suspension, respectively. […] The bacterial growth was assessed by measuring the absorbance at 595 nm using a microplate reader after a 24-hour incubation. Subsequently, 10 μL of bacterial suspension from each well were plated on horse blood agar plates and incubated at 37° C. for 48 h. The antibacterial activities of AMPs were evaluated.

S. mutans [5] = test: Anti-planktonic bacterial ability, MBC (Example 2); format: cell-based, S. mutans (ATCC 35668)
Description: as §3, §4

S. gordonii = test: Anti-planktonic bacterial ability, MBC (Example 2); format: cell-based, S. gordonii (ATCC 35105)
Description: as §3, §4

[6] = for Peptide concentration incubated in human saliva: 37° C.
Description: (§5) The collected saliva samples were centrifuged at 12,000 rpm for 20 min^21]. The supernatant was filtered to remove any debris. […] At 0, 0.5, 1, 2, 4, and 6 h, 40 uL solutions were taken from each sample and were analysed by High Performance Liquid Chromatography (HPLC-UV, 1525 Binary HPLC Pump, 2489 UV/Visible Detector, Waters, USA).

MC3T3-E1 cells = test: Cytocompatibility test, CCK-8 (Example 2); parameters: Cytocompatibility: key to the marks not given beside the values
in vitro = settings: human, human saliva (centrifuged, filtered supernatant)
Description: as §5

S. mutans [7] = test: Anti-bacterial adhesion ability on peptide-coated enamel (Example 1); format: cell-based, Streptococcus mutans (ATCC 35668); settings: 32 μmol/mL coated, 5 h incubation
Description: as §1
After overnight incubation, they were placed in a 96-well plate, followed by 200 μL S. mutans in BHI (10^6 CFU/mL) and incubation at 37° C. for 5 h. Tooth slices were washed once with PBS, one tooth slice at random from each group was stained, and fluorescence images obtained by CLSM. Separate tooth slices were used for CFU counting. Three independent biofilm experiments were performed.

[8] = demineralization solution 7 days

In the case of “AKRHHGYKRKFH-D-3,4-dihydroxyphenethylamine (AKRHHGYKRKFHD-{3,4‑dihydroxyphenethylamine}; not fully specified; printed as AKRHHGYKRKFH-D-3,4-dihydroxyphenethylamine) [Peptide P-113-DA]”, the “S. mutans killed (biofilm)” value (S. mutans biofilms; 64 μmol/mL) is reported as “Approximately 99%”, the “Viability counts of S. mutans biofilms” value (S. mutans biofilms; 64 μmol/mL) is reported as 6.04E+05 CFU/mL and the “CLSM live/dead state of S. mutans biofilm” value (S. mutans biofilms; 64 and 128 μmol/mL, 24 h) is reported as “the majority of S. mutans were dead”. The Maximum lesion depth [1, 8] was 110 μm, the “Ca losses vs control group” value [1, 8] was “Significant differences were not detected” and the “Thickness of the regenerated crystal layer on the enamel surface” value [2] was 7 μm. The MBC (S. mutans [3]) was 32 μM mL^−1, the MIC (S. mutans [3]) was 16 μM mL^−1 and the “Concentration change (95% CI)” value [4] was −0.17 (−0.55-0.40). For the same substance, the “Final concentration (Mean ± SD)” value [4] was 10.05 ± 0.99 nM mL^−1.

With “AKRHHGYKRKFHDSSDSSDSSDSSDSSDSSDSSDSS [Peptide P-113-8DSS]” the “MBC, S. sanguinis” value (S. sanguinis) was greater than 64 μM mL^−1, the “MBC, S. mutans” value (S. mutans [5]) was greater than 64 μM mL^−1 and the “MBC, S. gordonii” value (S. gordonii) was greater than 64 μM mL^−1.

For “DSSDSSDSSDSSDSSDSSDSSDSSAKRHHGYKRKFH [Peptide 8DSS-P-113]”, the “MBC, S. sanguinis” value (S. sanguinis) was 64 μM mL^−1, the “MBC, S. mutans” value (S. mutans [5]) was greater than 64 μM mL^−1 and the “MBC, S. gordonii” value (S. gordonii) was 64 μM mL^−1.

With “SpSpAKRHHGYKRKFH ([pS][pS]AKRHHGYKRKFH) [DPS-P-113]” the “MBC, S. sanguinis” value (S. sanguinis) was greater than 64 μM mL^−1, the “MBC, S. mutans” value (S. mutans [5]) was 64 μM mL^−1 and the “MBC, S. gordonii” value (S. gordonii) was greater than 64 μM mL^−1.

With TFFRLFNRAKRHHGYKRKFH [Peptide C8-P-113] the “Peptide concentration incubated in human saliva” value (“Peptide concentration incubated” for short) ([6]; 0 h) was 1 mg/mL, the “Peptide concentration incubated” value ([6]; 0.5 h) was 0.9531 mg/mL and the “Peptide concentration incubated” value ([6]; 1 h) was 0.8602 mg/mL. The “Peptide concentration incubated” value ([6]; 2 h) was 0.4977 mg/mL, the “Peptide concentration incubated” value ([6]; 4 h) was 0.3578 mg/mL and the “Peptide concentration incubated” value ([6]; 6 h) was 0.119 mg/mL. The Stability ([6]; summary grade) was “−”, the “Concentrations with no significant differences in cell survival rates compared to the control group” value (MC3T3-E1 cells; MC3T3-E1, 24 h, ½×MBC, MBC and 2×MBC tested) was “all concentrations” and the Cytocompatibility (MC3T3-E1 cells; summary grade) was “++”. For the same substance, the remaining at 6 h, 1 mg mL^−1 (in vitro) was 11.9%.

In the case of “TFFRLFNRAKRHHGYKRKFHDSSDSSDSSDSSDSSDSSDSSDSS (not fully specified) [C8-P-113-8DSS]”, the “MBC, S. sanguinis” value (S. sanguinis) is reported as greater than 64 μM mL^−1, the “MBC, S. mutans” value (S. mutans [5]) is reported as 64 μM mL^−1 and the “MBC, S. gordonii” value (S. gordonii) is reported as greater than 64 μM mL^−1.

In the case of “phosphoserine-DSHAKRHHGYKRKFHEKHHSHRGY (SDSHAKRHHGYKRKFHEKHHSHRGY; N-terminal phosphoserine; MOD_RES 1 Serine is phosphorylated) [Sp-H5, phosphoserine-histatin 5, used as control group]”, the “S. mutans killed (biofilm)” value (S. mutans biofilms; 128 μmol/mL) is reported as “Approximately 99%”, the “Viability counts of S. mutans biofilms” value (S. mutans biofilms; 128 μmol/mL) is reported as 2.0E+04 CFU/mL and the Maximum lesion depth [1, 8] is reported as 85 μm. For the same substance, the “Ca and P loss from coated enamel slices (ICP-OES)” value ([1]; vs P-113-, P-113-DA-, P-113-SK-coated or non-coated slices, P<0.001) was “decreased significantly”, the “Thickness of the regenerated crystal layer on the enamel surface” value [2] was 6 μm and the “Viable counts of S. mutans on peptide-coated enamel surfaces” value (S. mutans [7]) was 2.04E+05 CFU/mL. The MBC (S. mutans [3]) was 32 μM mL^−1, the MIC (S. mutans [3]) was 8 μM mL^−1 and the “Concentration change (95% CI)” value [4] was 3.27 (2.92-3.58). For the same substance, the “Final concentration (Mean ± SD)” value [4] was 6.73 ± 0.12 nM mL^−1.
